# From patent publication US11214625B2, “Application of PCSK9 inhibitors in the preparation of drugs for the treatment of inflammatory immune diseases” (priority 2015, dated 2022)
# “Also recorded” adds a separate entry of the source.
# Assays:
# [1] = test system: CD4 T cells isolated from peripheral blood of patients with psoriasis, eczema and urticaria; assay: Effect of PCSK9 protein on cytokine secretion of peripheral blood CD4+ T cells (ELISA); assay type: cell-based, human
# Procedure: Materials: peripheral blood of 10 cases of psoriasis, 10 cases of eczema, 10 cases of urticaria, and 10 cases of normal people. ELISA kit was purchased from Raybiotech
# After PBMC was isolated by Ficoll-Hypaque from human peripheral blood by density gradient centrifugation, washed with 10 times volume 1×BD beads buffer. Then 50 ul BD IMag TM CD4 beads were added to each […]. The beads were mixed well and incubated at room temperature for 30 minutes. 1 ml 1×BD magnetic bead buffer solution was added, and the cells were transferred to the round bottom tube and placed in the magnetic frame for 8 to 10 minutes. And then the supernatant was discarded and removed the test tube from the magnetic field. After resuspension of cells attached to tube wall with 1 ml 1×BD magnetic bead buffer, the tubes were placed in magnetic field for 2-4 min again. The supernatant was discarded removed it out of the magnetic field, resuspended the cells and placed the tube in the magnetic field for 2-4 min. The cells obtained from the […] can be used in subsequent experiments. BD IMag TM CD4 separation system was purchased from BD Biosciences Company.
# The supernatant was collected after cell culture under different conditions. IFN-Gamma represented TH1 type cytokines, IL-4 represented TH2 type cytokines, and IL-17 represented TH17 cytokines. The detection of IFN-Gamma, IL-4, IL-17 was conducted by ELISA.
# [2] = test system: IMQ induced psoriasis-like lesions in BALB/c mice; assay: Subcutaneous injection in mice with IMQ induced psoriasis-like skin lesions; assay type: in vivo; details: for adverse reactions / therapeutic effect compared between groups: subcutaneous injection; for erythema, scales and infiltration in the back coating area: subcutaneous on first day (inhibitor 8 mg/kg, antibody 10 mg/kg), after 6 days of IMQ; for score of erythema, scales, infiltration and total score: subcutaneous, daily scoring during 6 days of IMQ
# Procedure: (§1) The PCSK9 monoclonal antibody used for this example is Evolocumab. 40 SPF female BALB/c mice aged 6-8 weeks were randomly divided into normal control group, model group, PCSK9 small molecule inhibitor group and PCSK9 monoclonal antibody group. There were 10 mice for each group. After intraperitoneal injection of pentobarbital sodium 80 mg/kg, the back was shaved with an area of about 2 cm×3 cm. The mice were feed separately for 1 day.
# (1) In normal control group, Vaseline was applied locally. In model group, inhibitor group and monoclonal antibody group, 62.5 mg of 5% imiquimod cream was applied on the back every day for 6 consecutive days, photos were taken and the PASI score was evaluated.
# (2) On the first day, normal saline was subcutaneously administrated to normal control group and model group, PCSK9 small molecule inhibitor was subcutaneously administrated (8 mg/kg, Purchased from Selleck Inc.) to inhibitor group, and PCSK9 monoclonal antibody was subcutaneously administrated to monoclonal antibody group (10 mg/kg, Purchased from abcam Inc.)
# [3] = test system: IMQ induced psoriatic lesions in BALB/c mice; assay: External (cream) use on IMQ induced psoriatic lesions of mice; assay type: in vivo; details: for erythema, scales and infiltration in the back of the mice / score of erythema, scales, infiltration and total score: cream 0.01% once daily; for erythema, scales and infiltration in the back of the mice: 7 days pretreatment, then 6 days with IMQ; for score of erythema, scales, infiltration and total score: daily score during 6 days of IMQ; for adverse reaction: external ointment once a day; for efficacy compared between groups: external use (ointment/cream)
# Procedure: as §1, with “(1)” for “The PCSK9 monoclonal antibody used for this example is Evolocumab.”, “PCSK9” for “PCSK9 small molecule”
# (2) In normal control group, vaseline was applied locally. In model group, small molecule inhibitor group and monoclonal antibody group, 62.5 mg of 5% imiquimod cream was applied on the back every day for 6 consecutive days, and photos were taken and the PASI score was evaluated.
# (3) Pretreatment: vaseline was applied on the back skin with mics in normal control group and model group, PCSK9 small molecule inhibitor cream (0.01% concentration) was applied to inhibitor group once daily. And, PCSK9 monoclonal antibody cream (0.01% concentration) was applied to monoclonal antibody group once daily.
# (4) After 7 days pretreatment, vaseline was applied on the back skin with mice in normal control group. At the same time, 62.5 mg 5% imiquimod cream was regularly applied daily on the back with mice in model group, small molecule inhibitor group and monoclonal antibody group. PCSK9 small molecule inhibitor cream or PCSK9 monoclonal antibody cream was applied after one hour. For 6 consecutive days, photos were taken and the PASI score was evaluated.
molecule,measurement,setting,value
PCSK9 protein: PCSK9 protein added to CD4 T cells of patients,"secretion of IL-17, IL-2 and IFN-Gamma by CD4 T cells","[1]; CD4 T cells of patients with psoriasis, eczema and urticaria, ELISA of supernatant",significantly promote
same,expression of NFkb in CD4 T cells,[1]; especially in psoriatic patients,increased
O=C(c1ccc(-n2nnc3cccnc32)cc1)N(c1ncccc1Cl)C1CCCNC1 (stereo not drawn) [PCSK9 small molecule inhibitor],adverse reactions,[2],no obvious adverse reactions
same,therapeutic effect compared between groups,[2],better than that of PCSK9 monoclonal antibody group; also recorded: significantly better than that of control group
same,"erythema, scales and infiltration in the back coating area",[2],"only mild erythema, scales and infiltration"
same,"score of erythema, scales, infiltration and total score",[2],significantly lower than that of PCSK9 monoclonal antibody group; also recorded: reduce
same,"erythema, scales and infiltration in the back of the mice",[3],"only slight erythema, scales and infiltration"
same,"score of erythema, scales, infiltration and total score",[3],significantly lower than that in PCSK9 monoclonal antibody group; also recorded: significantly reduce
same,adverse reaction,[3],no obvious adverse reaction
same,efficacy compared between groups,[3],better than that of PCSK9 monoclonal antibody group; also recorded: significantly better than that of control group
"PCSK9 monoclonal antibody: PCSK9 monoclonal antibody used for Examples 6 and 7 is Evolocumab; SEQ ID NO:3-6 (antibody, chains of the INN, looked up, V domains shown) VH: EVQLVQSGAEVKKPGASVKVSCKASGYTLTSYGISWVRQAPGQGLEWMGWVSFYNGNTNYAQKLQGRGTMTTDPSTSTAYMELRSLRSDDTAVYYCARGYGMDVWGQGTTVTVSS VL: ESALTQPASVSGSPGQSITISCTGTSSDVGGYNSVSWYQQHPGKAPKLMIYEVSNRPSGVSNRFSGSKSGNTASLTISGLQAEDEADYYCNSYTSTSMVFGGGTKLTVL",adverse reactions,[2],no obvious adverse reactions
same,therapeutic effect compared between groups,[2],significantly better than that of control group
same,"erythema, scales and infiltration in the back coating area",[2],"only mild erythema, scales and infiltration"
same,"score of erythema, scales, infiltration and total score",[2],reduce
same,"erythema, scales and infiltration in the back of the mice",[3],"only slight erythema, scales and infiltration"
same,"score of erythema, scales, infiltration and total score",[3],significantly reduce
same,adverse reaction,[3],no obvious adverse reaction
same,efficacy compared between groups,[3],significantly better than that of control group
